Experimental data as given in EP4385495A1, “NANOSYSTEMS FOR THE ENCAPSULATION OF THERAPEUTIC AGENTS” (National Technical University of Athens, priority 2022, dated 2024).

Assays:
[1] = Body weight in collagenase-induced osteoarthritis rat model; type: in vivo, Wistar rats
Experimental: (§1) In order to understand the anti-inflammatory and antioxidant potential of the nanoparticles of the invention in vivo an experimental animal model of osteoarthritis (OA) was established. The OA lesions were caused by matrix degradation of articular cartilage using enzymatic means, such as collagenase type-II. Following the induction of osteoarthritis, the studied nanoparticles were administered for 8 weeks in which period the morphological and behavioral changes were measured and finally histological analysis of the articular cartilage samples concluded the in vivo study.
(§2) Rats were anesthetized with chloral hydrate. The right knee joints of Group I were injected with normal saline solution and served as a control. Animals from the groups II, III, IV, V, VI, VII were injected with collagenase type II (Clostridium histolyticum). Collagenase (125 collagen digestion unit/mg) was dissolved in saline, and it was injected intra-articularly into the right knee joint twice on days 1 and 4 of the experiment (Al-Saffar, F., H. Ganabadi and S. Fakurazi. Collagenase and sodium iodoacetate-induced experimental osteoarthritis model in Sprague dawley rats. Asian J. Sci. Res. 2: 1-13, 2009). The left knees of all animals were left untreated as a control.
(§3) Changes in body weight and knee diameter were measured on the 1st, 4th,11th,21st,31st,41st,51st, 61st, 71st day before every injection. Knee diameter was measured using a digital caliper. […] A change in body weight is also measured as one of the parameters to assess the course of the disease in the OA animal models.

[2] = test system: experimental animal model of osteoarthritis (OA); test: Slope walking test in osteoarthritis rat model; type: in vivo, Wistar rats
Experimental: as §2
Walking on an inclined plane was used for the clinical assessment of motor function in rats after induction of OA. The method consists of placing the animal on an inclined plane and then measuring the time (seconds) needed for the animals to go up the walking tray.

[3] = test system: experimental animal model of osteoarthritis (OA); test: Knee diameter (digital caliper) and gross observations in collagenase-induced osteoarthritis rat model; type: in vivo, Wistar rats; details: for Right knee diameter: collagenase-injected knee; for Left knee diameter: untreated control knee
Experimental: as §1, §2, §3

[4] = test system: experimental animal model of osteoarthritis (OA); test: von Frey mechanical allodynia test in osteoarthritis rat model; type: in vivo, Wistar rats; details: for Paw Withdrawal Threshold (%): right paw/(right paw + left paw)*100
Experimental: Healthy adult male Wistar rats (150-200 g) were used for the study, with water and food ad libitum, at a constant temperature of 22°C and controlled lighting (12 h light/12 h dark cycle). […] As far as the dispersion procedure of the injectables is concerned, all the natural compounds were dissolved in saline solution, whereas the studied nanoparticles were mechanically grinded in a mortar and pestle set with saline solution and Tween 20 (2% w/v) and heated at 36 °C before each treatment. There were six treatments administered every 10 days. At the end of the experiment rats were euthanized and both knees were collected for histological analysis. Rats were anesthetized with chloral hydrate. The right knee joints of Group I were injected with normal saline solution and served as a control. Animals from the groups II, III, IV, V, VI, VII were injected with collagenase type II (Clostridium histolyticum). Collagenase (125 collagen digestion unit/mg) was dissolved in saline, and it was injected intra-articularly into the right knee joint twice on days 1 and 4 of the experiment ([…] and S. Fakurazi. Collagenase and sodium iodoacetate-induced experimental osteoarthritis model in Sprague dawley rats. Asian J. Sci. Res. 2: 1-13, 2009). The left knees of all animals were left untreated as a control. For the evaluation of the effectiveness and time of release of the encapsulated compounds, all animals were subjected to a series of behavioral testing in addition to the measurements of body weight and knees diameter change. The experimental protocol of the present study followed the combination of three different behavioral tests, which are von Frey mechanical allodynia test, grid walking and slope walking test. Behavioral tests are performed in three phases, at the beginning before the start of treatment, in the middle of treatment (approximately 35-40 days) and at the end (after the 70th day). Mechanical allodynia was tested by the von Frey method which detects pain threshold as the paw withdrawal response. For the testing, rats were placed into plastic chambers that allow access to the plantar surface of the hind paws. […] In Table 15 below, the nociceptive threshold is defined as: nociceptive threshold (%) = ([…])/((nociceptive; threshold on right paw + nociceptive threshold of left paw))*100 [formula] Table 13: von Frey-paw withdrawal threshold (g)

CCK-8 viability assay = type: cell-based; details: human, primary human chondrocytes; 1 µM, 72h; positive control set to 100; read-out: Mean % relative viability
Experimental: b) The viability of human primary chondrocytes was evaluated following incubation with increasing concentrations of either the pure Naringin (S1) or the nanosystems (Samples S2 and S3) at 2-10-50µM of encapsulated Naringin (1:5 serial dilutions) for 72h (higher concentrations were not used because the nanosystems become insoluble and aggregates sediment on the cell monolayer). For S2 this corresponded to 6,4 µg/ml (for 2 µM of Naringin), 32 µg/ml (for 10 µM of Naringin) and 158 µg/ml (for 50 µM of Naringin) respectively, of total NP concentration. For S3 (CS[PLA[NAR]]) the total NP concentrations to provide the same µM of encapsulated Naringin were 14,4 / 72 / 360 µg/m). As control for the nanosystems, a blank PLA nanoparticle preparation coated with chitosan (S4) was used, at the same µg/ml polymer concentration like the ones used to achieve the 2-10-50µM range for Naringin (the difference being that the blank contains no Naringin). Finally, the blank S4 was used at the 14,4/72/360 µg/ml concentration range (1:5 serial dilutions). Following incubation, the CCK-8 viability kit was used according to manufacturer's instructions (Sigma, 96992-500TESTS-F). Macroscopical and microscopical observation confirmed the proper complete solubility and dispersion of the Nanoparticles. Importantly, healthy cell morphology was observed (spindle-like attached cells with several processes) with concomitant absence of undissolved material.
Table 5. Effect of the natural products and the nanosystems on the relative cell viability of primary human chondrocytes. Measurements obtained using the CCK-8 viability kit. Values normalized to positive control (PC; set to 100; arbitrary unit). Samples' coding: S1= pure Naringin, S2=Naringin encapsulated in PLA nanoparticles [PLA[NAR]], S3=Naringin encapsulated in PLA nanoparticles coated with chitosan CS[PLA[NAR]], and S4=Blank PLA nanoparticles coated with chitosan, CS(PLA[---]].

[5] = test system: experimental animal model of osteoarthritis (OA); test: Grid-walking test in osteoarthritis rat model; type: in vivo, Wistar rats
Experimental: as §2
In this test the rats were allowed to explore freely for 4 minutes in a wire grid and when one of the limbs fell below the grid surface during free walking, the observer counted the number of foot-fault errors (footslips) (Starkey, M. L., Barritt, A. W., Yip, P. K., Davies, M., Hamers, F. P. T., McMahon, S. B., & Bradbury, E. J. (2005). Assessing behavioural function following a pyramidotomy lesion of the corticospinal tract in adult mice. Experimental Neurology, 195(2), 524-539. doi:10.1016/j.expneurol.2005.0).

RAW264.7 cells = test: MTT cell viability assay; type: cell-based, mouse; details: 24h
Excerpt: The MTT (3-[4,5-dimethylthiazol-2-yl]-2,5 diphenyl tetrazolium bromide) assay is based on the ability of viable cells with active metabolism to convert the yellow MTT to a purple formazan product, which determines mitochondrial activity. The MTT formazan product agglomerates as an insoluble residuum within the cells, which can be solubilized (in this protocol with DMSO) for homogeneous measurement. Thus, any increase or decrease in the number of viable cells can be detected by measuring the formazan concentration reflected in the optical density (OD) measurement at 540 nm with a reference absorption of 720 nm. This assay is broadly used to measure the in vitro cytotoxic effects of drugs on cell lines or primary cells. For the experimental procedure a standard solution of MTT 1mg/mL in PBS was prepared which after filtration ([…] filter (Millipore, Carrigtwohill, Ireland)) was stored in the dark (4-8 °C) until use. In brief, RAW 264.7 cells were seeded in a 96-well plate at a density of 30.000 cells/ in 100 µL of medium per well. […] This was followed by incubation for 24 h, 48 h and 72 h. At the end of the incubation 10 µL of MTT was added to each well followed by incubation for 4 hours, for the formation of the formazan crystals. The formazan crystals were then dissolved by adding DMSO and stirring lightly for 30 min, after which the absorbance was measured in a plate reader at 540 nm with a reference absorbance of 720 nm. […] Table 4: % cell viability after treatment of RAW264.7 cells with the samples

[6] = 1st injection CO/saline (before treatment)
[7] = 2nd injection CO/saline (before treatment)
[8] = 70 days (end of experimental protocol)

With `CC(C)Cc1ccc(C(C)C(=O)O)cc1` (centres unmarked) [IBUPROFEN, ibuprofen] the “Body Weight (BW)” value [1, 6] was 234 g, the “Body Weight (BW)” value ([1]; 1st treatment, 10 mg/kg (S1, ibuprofen i.p.; nanoparticles i.a.), every 10 days) was 245 g and the “Body Weight (BW)” value [1, 7] was 230 g. For the same compound, the “Body Weight (BW)” value ([1]; 2nd treatment, 10 mg/kg (S1, ibuprofen i.p.; nanoparticles i.a.)) was 276 g, the “Body Weight (BW)” value ([1]; 3rd treatment, 10 mg/kg (S1, ibuprofen i.p.; nanoparticles i.a.)) was 296 g and the “Body Weight (BW)” value ([1]; 4th treatment, 10 mg/kg (S1, ibuprofen i.p.; nanoparticles i.a.)) was 303 g. The “Body Weight (BW)” value ([1]; 5th treatment, 10 mg/kg (S1, ibuprofen i.p.; nanoparticles i.a.)) was 308 g, the “Body Weight (BW)” value ([1]; 6th treatment, 10 mg/kg (S1, ibuprofen i.p.; nanoparticles i.a.)) was 313 g and the “% Changes in Body Weight (BW)” value ([1]; 11 days (before treatment)) was 4,7%. The “% Changes in Body Weight (BW)” value [1, 8] was 40,2%, the “Body Weight (BW)” value ([1]; final, 10 mg/kg (S1, ibuprofen i.p.; nanoparticles i.a.)) was 328 g and the “Slope Walking” value ([2]; 11 days (before treatment)) was 9,8 sec. The “Slope Walking” value [2, 8] was 8,9 sec, the “% Changes in Left knee diameter” value ([3]; 11 days (before treatment)) was 0,02% and the “% Changes in Right knee diameter” value ([3]; 11 days (before treatment)) was 0,91%. The “% Changes in Left knee diameter” value [3, 8] was 0,44%, the “% Changes in Right knee diameter” value [3, 8] was 0,37% and the Right knee diameter [3, 6] was 0,8128 cm. For the same compound, the Right knee diameter ([3]; 1st treatment, 10 mg/kg (S1, ibuprofen i.p.; nanoparticles i.a.)) was 0,8202 cm, the Right knee diameter [3, 7] was 0,8192 cm and the Right knee diameter ([3]; 3rd treatment) was 0,8172 cm. The Right knee diameter ([3]; 4th treatment) was 0,8174 cm, the Right knee diameter ([3]; 5th treatment) was 0,817 cm and the Right knee diameter ([3]; 6th treatment) was 0,816 cm. For the same compound, the Right knee diameter ([3]; final) was 0,8158 cm, the Left knee diameter ([3]; 1st injection CO/saline) was 0,8158 cm and the Left knee diameter ([3]; 1st treatment) was 0,816 cm. The Left knee diameter ([3]; 2nd injection CO/saline) was 0,816 cm, the Left knee diameter ([3]; 4th treatment) was 0,8184 cm and the Left knee diameter ([3]; final) was 0,8194 cm. The “von Frey-paw withdrawal threshold” value ([4]; 11 days (before treatment)) was 59,78 g, the “von Frey-paw withdrawal threshold” value ([4]; 70 days (end of experimental protocol), 10 mg/kg (S1, ibuprofen i.p.; nanoparticles i.a.)) was 83,8 g and the “von Frey-paw withdrawal threshold” value ([4]; left-control paw) was 93,9 g. The “Paw Withdrawal Threshold (%)” value ([4]; 11 days (before treatment)) was 38,90%, the “Paw Withdrawal Threshold (%)” value [4, 8] was 45,44% and the viability at 72 h, 1 µM (CCK-8 viability assay) was 100%. The “Foot fault in grid-walk test (4 min)” value ([5]; 11 days left paw) was 1,4, the “Foot fault in grid-walk test (4 min)” value ([5]; 11 days right paw) was 2,8 and the “Foot fault in grid-walk test (4 min)” value ([5]; 40 days left paw) was 1,8. For the same compound, the “Foot fault in grid-walk test (4 min)” value ([5]; 40 days right paw) was 1,2, the “Foot fault in grid-walk test (4 min)” value ([5]; 70 days left paw) was 1 and the “Foot fault in grid-walk test (4 min)” value ([5]; 70 days right paw) was 1.
With `COc1cc(C2Oc3cc([C@H]4Oc5cc(O)cc(O)c5C(=O)[C@@H]4O)ccc3OC2CO)ccc1O` (some centres unmarked) [PC (Silibinin), silibinin] the “% cell viability” value (RAW264.7 cells; 25 µM) was 30% and the “% cell viability” value (RAW264.7 cells; 50 µM) was 20%.
